Test results reported in ChEMBL document CHEMBL1201862, “PubChem BioAssay data set” (2004).
Active and inactive are the calls of the source.

Columns and labels:
[1] = target: Induced myeloid leukemia cell differentiation protein Mcl-1 (Homo sapiens, UniProt Q07820); type: functional
[2] = target: T1, High affinity choline transporter 1 (Homo sapiens, UniProt Q9GZV3); assay: CHT inhibitors, dose response, cell-based, 5-point CRC, membrane potential dye (AID 504840); type: functional
T1 sequence (Q9GZV3 whole entry): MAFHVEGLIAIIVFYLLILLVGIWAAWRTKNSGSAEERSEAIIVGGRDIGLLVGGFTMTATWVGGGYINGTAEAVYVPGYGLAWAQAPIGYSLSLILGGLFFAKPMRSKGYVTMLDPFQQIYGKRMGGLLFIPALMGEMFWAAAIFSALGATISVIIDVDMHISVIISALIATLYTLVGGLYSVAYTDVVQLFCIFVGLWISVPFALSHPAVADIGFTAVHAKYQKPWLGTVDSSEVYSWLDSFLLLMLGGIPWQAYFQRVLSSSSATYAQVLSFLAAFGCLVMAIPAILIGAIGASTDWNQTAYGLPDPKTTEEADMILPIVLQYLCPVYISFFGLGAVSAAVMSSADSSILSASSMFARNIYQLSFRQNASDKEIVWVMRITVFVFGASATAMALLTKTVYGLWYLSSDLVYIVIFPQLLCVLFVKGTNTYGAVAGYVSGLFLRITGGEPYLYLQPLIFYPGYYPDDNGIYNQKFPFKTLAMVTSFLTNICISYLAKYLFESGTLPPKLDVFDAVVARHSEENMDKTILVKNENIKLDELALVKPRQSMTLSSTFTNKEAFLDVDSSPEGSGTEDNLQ

[3] = cells; type: functional
[4] = THP-1 cell cytotoxicity, dose response, cytotoxicity control for non-replicating M. tuberculosis project (AID 489025); type: functional
[5] = Vero E6 cell cytotoxicity, dose response, cytotoxicity control for non-replicating M. tuberculosis project, secondary assay (AID 492998); type: functional, VeroE6; conditions: Vero C1008
[6] = target: T2, Low molecular weight phosphotyrosine protein phosphatase (Homo sapiens, UniProt P24666); type: functional; conditions: read-out: IC50_Mean;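 further: Dose-response confirmation assay measuring inhibition of LMPTP enzyme activity by fluorescence intensity read-out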
T2 sequence (P24666 whole entry): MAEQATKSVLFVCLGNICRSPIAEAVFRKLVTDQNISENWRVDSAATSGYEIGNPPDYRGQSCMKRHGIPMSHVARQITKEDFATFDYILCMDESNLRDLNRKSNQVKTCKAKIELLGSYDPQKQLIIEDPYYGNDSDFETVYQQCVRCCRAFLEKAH

[7] = tested on: INS1; assay: beta cell apoptosis inhibitors, cytokine rescue, dose response, luminescence, retest (AID 449756); type: functional, cell-based; conditions: Rattus norvegicus;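 further: cell death triggered by IL-1 beta plus TNF-alpha plus IFN-gamma mixture; protective hits raise ATP signal compared with cytokine alone wells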
[8] = target: T3, Carboxy-terminal domain RNA polymerase II polypeptide A small phosphatase 1 (Homo sapiens, UniProt Q9GZU7); assay: inhibitors of CTDSP1, concentration-response testing, biochemical assay, absorbance-based, actives from ultra-high-throughput screening (AID 540297); type: functional
T3 sequence (Q9GZU7 whole entry): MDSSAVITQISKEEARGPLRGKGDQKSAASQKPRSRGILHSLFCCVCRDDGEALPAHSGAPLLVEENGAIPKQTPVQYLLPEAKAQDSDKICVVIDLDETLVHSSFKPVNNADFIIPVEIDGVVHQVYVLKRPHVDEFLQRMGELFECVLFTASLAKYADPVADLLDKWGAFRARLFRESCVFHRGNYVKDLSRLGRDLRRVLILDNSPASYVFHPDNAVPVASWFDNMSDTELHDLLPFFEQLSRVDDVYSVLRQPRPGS

[9] = Luminescence Cell-Based Dose Confirmation HTS to Identify Activators of 5'UTR Stem-Loop Driven Alpha-Synuclein mRNA Translation in H4 Neuroglioblastoma Cells. [Related pubchem assays: 1829 (Project Summary), 1814 (Primary HTS)]; type: functional
[10] = M. tuberculosis H37Rv growth inhibitors, H37Rv strain (AID 1626); type: functional
[11] = Luminescence Cell-Based Dose Response HTS to Identify Activators of Luciferase Translation or Activity in H4 […] Cells. [Related pubchem assays: 1829 (Project Summary), 1814 (Primary HTS)]; type: functional
[12] = tested on: H4; assay: Luminescence Cell-Based Dose Response HTS to Identify Activators of 5'UTR Stem-Loop Driven Prion Protein mRNA Translation in H4 Neuroglioblastoma Cells. [Related pubchem assays: 1829 (Project Summary), 1814 (Primary HTS)]; type: functional; conditions: Homo sapiens
[13] = target: Voltage-dependent T-type calcium channel subunit alpha-1H (Homo sapiens, UniProt O95180); type: functional;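 further: channel activity triggered by adding a high calcium stimulation buffer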
Voltage-dependent T-type calcium channel subunit alpha-1H, sequence (O95180 whole entry): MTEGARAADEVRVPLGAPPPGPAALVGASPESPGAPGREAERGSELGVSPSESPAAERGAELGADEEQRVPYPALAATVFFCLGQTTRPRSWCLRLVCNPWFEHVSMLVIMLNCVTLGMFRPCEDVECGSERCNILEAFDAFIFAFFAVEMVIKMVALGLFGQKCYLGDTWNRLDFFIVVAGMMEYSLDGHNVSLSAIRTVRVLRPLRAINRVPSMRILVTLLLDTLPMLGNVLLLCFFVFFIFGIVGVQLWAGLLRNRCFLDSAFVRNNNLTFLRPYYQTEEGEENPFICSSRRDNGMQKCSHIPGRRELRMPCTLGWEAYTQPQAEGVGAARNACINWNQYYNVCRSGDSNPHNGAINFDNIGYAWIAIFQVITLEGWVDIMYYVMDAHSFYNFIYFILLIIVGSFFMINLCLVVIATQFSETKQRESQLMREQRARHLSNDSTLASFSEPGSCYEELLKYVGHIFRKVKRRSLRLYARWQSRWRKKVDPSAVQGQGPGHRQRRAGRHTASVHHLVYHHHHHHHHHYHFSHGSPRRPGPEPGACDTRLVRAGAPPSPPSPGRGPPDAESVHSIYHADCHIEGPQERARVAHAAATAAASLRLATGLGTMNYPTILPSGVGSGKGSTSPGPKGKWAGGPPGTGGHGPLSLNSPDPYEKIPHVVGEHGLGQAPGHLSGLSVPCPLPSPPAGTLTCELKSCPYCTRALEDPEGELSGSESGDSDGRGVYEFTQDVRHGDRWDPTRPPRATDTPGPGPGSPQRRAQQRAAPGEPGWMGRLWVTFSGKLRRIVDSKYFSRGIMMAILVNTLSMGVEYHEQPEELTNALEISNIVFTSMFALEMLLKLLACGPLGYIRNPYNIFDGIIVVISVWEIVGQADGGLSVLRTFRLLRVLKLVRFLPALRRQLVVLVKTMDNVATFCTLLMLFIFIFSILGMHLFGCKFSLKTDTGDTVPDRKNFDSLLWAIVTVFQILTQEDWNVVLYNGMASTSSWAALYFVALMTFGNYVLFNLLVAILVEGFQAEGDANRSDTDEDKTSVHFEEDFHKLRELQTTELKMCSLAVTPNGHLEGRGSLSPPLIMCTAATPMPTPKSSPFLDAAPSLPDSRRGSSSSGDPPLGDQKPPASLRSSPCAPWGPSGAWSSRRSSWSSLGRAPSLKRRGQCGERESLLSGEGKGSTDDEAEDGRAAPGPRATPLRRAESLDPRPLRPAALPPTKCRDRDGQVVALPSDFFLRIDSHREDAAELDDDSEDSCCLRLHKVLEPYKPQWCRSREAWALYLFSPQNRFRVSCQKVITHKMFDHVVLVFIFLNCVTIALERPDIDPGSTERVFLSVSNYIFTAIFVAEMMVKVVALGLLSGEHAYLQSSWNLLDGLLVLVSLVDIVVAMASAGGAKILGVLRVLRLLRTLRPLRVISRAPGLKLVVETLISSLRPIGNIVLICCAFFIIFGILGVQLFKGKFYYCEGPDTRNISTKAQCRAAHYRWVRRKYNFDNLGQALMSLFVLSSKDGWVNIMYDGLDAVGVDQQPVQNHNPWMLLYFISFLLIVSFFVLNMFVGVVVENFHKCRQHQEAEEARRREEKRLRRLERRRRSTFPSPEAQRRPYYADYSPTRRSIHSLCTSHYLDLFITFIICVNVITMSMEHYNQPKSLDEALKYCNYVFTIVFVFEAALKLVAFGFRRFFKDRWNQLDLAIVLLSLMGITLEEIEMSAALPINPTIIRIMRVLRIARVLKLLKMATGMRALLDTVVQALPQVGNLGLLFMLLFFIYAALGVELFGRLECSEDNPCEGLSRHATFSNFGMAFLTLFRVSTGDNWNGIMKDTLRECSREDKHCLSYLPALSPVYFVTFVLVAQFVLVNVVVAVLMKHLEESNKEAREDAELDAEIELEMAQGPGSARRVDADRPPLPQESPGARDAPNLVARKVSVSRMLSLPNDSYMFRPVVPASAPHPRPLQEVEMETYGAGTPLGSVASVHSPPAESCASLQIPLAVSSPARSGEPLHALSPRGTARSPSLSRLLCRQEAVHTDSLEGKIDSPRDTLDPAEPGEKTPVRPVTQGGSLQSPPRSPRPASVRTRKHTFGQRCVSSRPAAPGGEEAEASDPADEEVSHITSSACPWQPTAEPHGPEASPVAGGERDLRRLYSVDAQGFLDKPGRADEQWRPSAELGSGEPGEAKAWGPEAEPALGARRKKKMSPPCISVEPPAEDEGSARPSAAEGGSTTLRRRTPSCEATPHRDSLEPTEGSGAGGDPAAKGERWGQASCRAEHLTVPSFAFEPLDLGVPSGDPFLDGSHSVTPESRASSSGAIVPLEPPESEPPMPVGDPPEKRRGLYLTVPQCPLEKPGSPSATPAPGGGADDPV

[14] = target: T4, Polyadenylate-binding protein 1 (Homo sapiens, UniProt P11940); assay: PABP1 MLLE–PAM2 binding inhibitor potency, dose response, biochemical, fluorescence polarization, FITC-PAM2 peptide (AID 602259); type: functional; conditions: read-out: IC50_Mean
T4 sequence (P11940 whole entry): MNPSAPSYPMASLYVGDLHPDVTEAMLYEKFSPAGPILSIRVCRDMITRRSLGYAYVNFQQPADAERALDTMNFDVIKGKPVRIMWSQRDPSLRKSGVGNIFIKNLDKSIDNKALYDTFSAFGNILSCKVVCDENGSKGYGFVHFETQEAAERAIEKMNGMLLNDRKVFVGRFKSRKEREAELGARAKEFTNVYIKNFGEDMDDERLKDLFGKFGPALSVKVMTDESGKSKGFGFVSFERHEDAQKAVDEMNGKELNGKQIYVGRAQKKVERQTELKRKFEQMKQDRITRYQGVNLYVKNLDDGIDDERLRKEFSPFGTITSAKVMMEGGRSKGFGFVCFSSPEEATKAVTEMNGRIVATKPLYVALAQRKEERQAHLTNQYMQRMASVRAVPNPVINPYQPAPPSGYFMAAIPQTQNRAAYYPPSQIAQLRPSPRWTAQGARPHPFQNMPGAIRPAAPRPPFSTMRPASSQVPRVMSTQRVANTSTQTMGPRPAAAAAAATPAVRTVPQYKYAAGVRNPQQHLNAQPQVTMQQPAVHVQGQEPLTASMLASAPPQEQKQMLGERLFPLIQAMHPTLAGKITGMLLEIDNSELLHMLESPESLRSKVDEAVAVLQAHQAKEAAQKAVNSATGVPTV

[15] = target: T4, Polyadenylate-binding protein 1; assay: PABP1 MLLE–PAM2 interaction inhibitors, dose response, miRNA deadenylation inhibitor project, biochemical, fluorescence polarization, Cy5-PAM2 peptide, secondary (AID 602260); type: functional; conditions: read-out: IC50_Mean
[16] = target: T5, DNA repair and recombination protein RAD54-like (Homo sapiens, UniProt Q92698); assay: inhibitors of human RAD54 branch migration, confirmation, biochemical, fluorescence, cherry-picked samples, dose series (AID 651657); type: functional
T5 sequence (Q92698 whole entry): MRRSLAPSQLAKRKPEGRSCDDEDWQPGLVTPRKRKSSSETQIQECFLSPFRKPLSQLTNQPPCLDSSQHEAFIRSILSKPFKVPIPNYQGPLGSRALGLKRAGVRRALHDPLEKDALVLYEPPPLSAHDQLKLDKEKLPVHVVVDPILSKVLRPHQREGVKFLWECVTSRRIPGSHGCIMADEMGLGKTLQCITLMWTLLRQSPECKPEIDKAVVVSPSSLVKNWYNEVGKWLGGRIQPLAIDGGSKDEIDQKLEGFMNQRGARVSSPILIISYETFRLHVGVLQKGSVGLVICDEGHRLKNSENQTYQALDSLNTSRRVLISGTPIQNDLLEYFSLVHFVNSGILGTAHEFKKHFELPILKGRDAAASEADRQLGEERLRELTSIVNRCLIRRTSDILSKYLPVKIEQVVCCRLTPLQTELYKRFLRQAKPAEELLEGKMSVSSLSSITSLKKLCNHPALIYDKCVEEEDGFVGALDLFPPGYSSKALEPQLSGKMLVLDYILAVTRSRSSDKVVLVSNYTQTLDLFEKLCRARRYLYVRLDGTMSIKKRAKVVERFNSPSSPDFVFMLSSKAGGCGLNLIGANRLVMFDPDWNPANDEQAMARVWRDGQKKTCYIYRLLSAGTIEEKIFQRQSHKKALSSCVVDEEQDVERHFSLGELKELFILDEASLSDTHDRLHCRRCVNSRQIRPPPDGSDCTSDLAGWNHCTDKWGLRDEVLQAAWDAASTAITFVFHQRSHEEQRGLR

[17] = tested on: Streptococcus sp. 'group A'; assay: growth inhibition of control SK(-) GAS strain, dose response, counter-screen for streptokinase expression inhibitor project, luminescence, kanamycin, BacTiterGlo, confirmation (AID 1900); type: functional, organism-based
[18] = target: T6, Streptokinase A (Streptococcus pyogenes serotype M1, UniProt P10520); assay: S. pyogenes streptokinase expression inhibitors, potency, dose response, plasminogen activation absorbance, OD405 (AID 1914); type: functional, Streptococcus pyogenes M1 GAS;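 further: secreted streptokinase activity via plasminogen activation per viability signal from cell pellet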
T6 sequence (P10520 whole entry): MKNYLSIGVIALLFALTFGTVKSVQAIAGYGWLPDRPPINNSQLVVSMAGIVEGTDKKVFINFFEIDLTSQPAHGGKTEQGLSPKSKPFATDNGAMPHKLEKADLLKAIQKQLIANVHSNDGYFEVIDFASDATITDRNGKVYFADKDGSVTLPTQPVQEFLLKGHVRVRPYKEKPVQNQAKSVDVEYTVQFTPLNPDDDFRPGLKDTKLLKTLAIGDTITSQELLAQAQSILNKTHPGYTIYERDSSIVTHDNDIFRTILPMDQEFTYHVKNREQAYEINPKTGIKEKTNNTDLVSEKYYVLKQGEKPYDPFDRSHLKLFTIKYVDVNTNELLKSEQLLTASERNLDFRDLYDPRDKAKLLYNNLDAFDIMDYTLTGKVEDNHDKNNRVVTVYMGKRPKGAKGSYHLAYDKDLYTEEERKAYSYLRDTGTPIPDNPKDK

[19] = tested on: Streptococcus; assay: Group A Streptococcus viability loss, dose response, counter-screen for streptokinase expression inhibitor project, luminescence, BacTiterGlo (AID 1915); type: functional, organism-based;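 further: potency for reduction of bacterial viability or growth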
[20] = tested on: H9c2; assay: cells; type: functional, cell-based; conditions: Rattus norvegicus, H9c2, Myocardium;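 further: confirmatory concentration-response retest of ultra-high-throughput screening hits for modulation of myocardial damage; cell death induced by hydrogen peroxide oxidative stress; compound pretreatment for 60 min then peroxide exposure for 2 h; potency is for protecting the cells against peroxide damage rather than for killing them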

Induced myeloid leukemia cell differentiation protein Mcl-1, sequence (Q07820 whole entry): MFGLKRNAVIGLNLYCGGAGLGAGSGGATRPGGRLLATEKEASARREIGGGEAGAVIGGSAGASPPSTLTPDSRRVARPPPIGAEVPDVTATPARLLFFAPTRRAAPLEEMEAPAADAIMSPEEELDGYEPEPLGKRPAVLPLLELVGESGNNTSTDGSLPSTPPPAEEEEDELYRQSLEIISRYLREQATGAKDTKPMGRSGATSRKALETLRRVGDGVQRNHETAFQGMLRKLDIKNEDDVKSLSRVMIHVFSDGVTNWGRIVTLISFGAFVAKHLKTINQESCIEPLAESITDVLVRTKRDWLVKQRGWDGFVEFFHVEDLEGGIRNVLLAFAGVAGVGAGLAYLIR

O=C(O)CSc1cc(C(=O)c2cc(F)ccc2O)cn2c(=O)c3c(-c4ccccc4)csc3nc12
IC50 [1]: 2.79 µM (active) | IC50 [2]: 16.6 µM (active)

CCn1c(NC(=O)c2ccccc2)nc2ccccc21
IC50 [3]: 1.94 µM (active) | CC50 [4]: > 40 µM (active) | CC50 [5]: 19.6 µM (active)

Cc1csc2nc(NC(=O)c3ccccc3)sc(=O)c12
IC50 [6]: 29.8 µM (inactive) | AC50 [7]: > 260 µM (inactive) | IC50 [8]: 7.03 µM (active)

Cn1cnnc1SCc1ccc(-c2ccc(Br)cc2)o1
EC50 [9]: 20.7 µM (active) | IC50 [10]: > 100 µM (active) | EC50 [11]: 21.2 µM (active) | EC50 [12]: 22.2 µM (active)

CCCn1c2ccccc2c2cnn(CC(=O)NCCCN3CCCCC3CC)c(=O)c21 (stereo not given)
IC50 [2]: 13.6 µM (active)

CCN(Cc1ccccc1)C(c1ccccn1)c1nnnn1C1CCCCC1 (stereo not given)
EC50 [13]: 3.93 µM (active)

O=C(CCN1CCOCC1)NNC(=S)NC(=O)c1ccccc1
IC50 [14]: > 66 µM (inactive) | IC50 [15]: > 66 µM (inactive)

COc1cccc(N2CCN(C(=O)C3CCCN(c4ncnc5c4nc4n5CCCCC4)C3)CC2)c1 (stereo not given)
IC50 [2]: 16.6 µM (active)

CCOc1cc2[nH]c(=O)n(Cc3ccc(C(=O)NCCCN4CCC(C)CC4)cc3)c(=O)c2cc1OCC
AC50 [16]: 55.9 µM (active)

CCCNC(=O)NCCc1c(C)[nH]c2ccccc12
IC50 [14]: 45.9 µM (inactive) | IC50 [15]: > 66 µM (inactive)

Cc1[nH]c2ccccc2c1C(=O)CN1CCCC(C)C1 (stereo not given)
IC50 [2]: 15.8 µM (active)

Cc1cccc(NC(=O)COc2ccc(/C=C\c3nc(O)nc(O)c3[N+](=O)[O-])cc2)c1
IC50 [6]: 80 µM (inactive) | IC50 [8]: 1.78 µM (active)

O=C(N=Nc1c(O)[nH]c2ccc(F)cc12)c1ccc(NS(=O)(=O)c2cccs2)cc1
IC50 [6]: 80 µM (inactive)

O=C(OCc1nc2ccccc2s1)c1cccs1
EC50 [13]: 12.2 µM (active)

Cn1cc(C(=O)c2ccc(Cl)cc2Cl)cc1C(=O)NN=C(N)COc1cccc(C(F)(F)F)c1
EC50 [17]: 2.31 µM (active) | EC50 [18]: 133 µM (active) | EC50 [19]: > 150 µM (not active) | EC50 [13]: 2.61 µM (active)

Cc1cccn2c(=O)c3cc(C(=O)NCC4CCCO4)c(=N)n(C4CCCCC4)c3nc12 (stereo not given)
AC50 [16]: 56 µM (active)

Cc1cccc(-c2noc(CN(C(=O)c3ccc4c(c3)OCO4)C(C)C)n2)c1
EC50 [13]: 8.31 µM (active)

N=c1n(CCN2CCCC2)c2ccccc2n1CC(O)c1ccco1 (stereo not given)
IC50 [14]: > 66 µM (inactive) | IC50 [15]: > 66 µM (inactive)

COc1ccccc1C(CNC(=O)c1cccc(NS(=O)(=O)c2ccc(C)c(F)c2)c1)N1CCCC1 (stereo not given)
IC50 [2]: 12.5 µM (active)

CCC(C)(C)n1nnnc1C(c1ccc(C)cc1)N1CCN(Cc2ccc3c(c2)OCO3)CC1 (stereo not given)
EC50 [13]: 6.68 µM (active)

CCCc1nc2c(C)cc(Br)cn2c1Cc1ccsc1
IC50 [14]: 41.9 µM (inactive) | IC50 [15]: 35.7 µM (inactive)

COc1cccc(/C=N/NC(=O)c2ccncc2)c1OC(=O)c1ccc(Br)cc1
IC50 [20]: 12.8 µM (active) | IC50 [14]: 25.1 µM (inactive) | IC50 [15]: > 66 µM (inactive)
